Legend:
[1] = biological target: T1, SIRT5 (Homo sapiens, UniProt Q9NXA8); assay: Labeling of SIRT5 in partially purified recombinant sirtuin mixture and peptide competition; format: biochemical; details: 500 μM NAD+, increasing concentrations of probe, 20 min irradiation
T1 construct: SIRT5 (34-302); made in house
T1 sequence (Q9NXA8 34-302): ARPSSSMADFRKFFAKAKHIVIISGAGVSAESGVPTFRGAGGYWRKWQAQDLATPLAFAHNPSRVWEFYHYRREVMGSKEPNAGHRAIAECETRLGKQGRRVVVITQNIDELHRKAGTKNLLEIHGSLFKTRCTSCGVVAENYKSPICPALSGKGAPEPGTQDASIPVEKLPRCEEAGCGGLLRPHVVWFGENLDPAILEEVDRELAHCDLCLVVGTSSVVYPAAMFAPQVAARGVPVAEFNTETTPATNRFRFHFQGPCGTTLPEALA
Description: Probe 2B, being a selective SIRT5 inhibitor, was also selective for SIRT5 in the labeling experiments. […] The on-target effect of probe 2B was further confirmed by the peptide competition analysis. H3K9Suc (Figure 4B), a synthetic peptide that is identical to the N-terminus of histone H3 bearing a succinylated lysine 9 mark, is a known SIRT5 substrate. H3K9Suc was titrated into SIRT5 in the presence of probe 2B.
Figure 4 Labeling of SIRT5 by probe 2B. (A) Dose-dependent labeling of SIRT5 by probe 2B in recombinantly expressed, partially purified sirtuin mixture. SIRT1, SIRT2, SIRT3, SIRT5, and SIRT6 were mixed and incubated with 500 μM NAD^+ and increasing concentrations of 2B. The samples were incubated at 37 °C for 10 min and subjected to UV irradiation for 20 min, and then “click” conjugated to TAMRA-azide; (B) Chemical structure of H3K9Suc; (C) Peptide competition. The labeling of SIRT5 by probe 2B decreased with increasing concentrations of the competitor peptide, H3K9Suc.
A typical labeling experiment was performed as follows: in a 0.7 mL Eppendorf tube, purified recombinant human sirtuin (10 μM) was incubated with NAD^+ (500 μM) and activity-based probe at 37 °C for 10 min. […] Then, destained gel was analyzed with in-gel fluorescence scanning using a Biorad ChemiDoc MP imager (excitation 532 nm, 580 nm cut-off filter and 30 nm band-pass). […]

[2] = biological target: T2, SIRT5 (Homo sapiens, UniProt Q9NXA8); assay: Western blot of CPS1Ac in HEK293 cells; format: cell-based
T2 construct: endogenous in cells; host or cells: HEK293
T2 sequence (Q9NXA8 37-310): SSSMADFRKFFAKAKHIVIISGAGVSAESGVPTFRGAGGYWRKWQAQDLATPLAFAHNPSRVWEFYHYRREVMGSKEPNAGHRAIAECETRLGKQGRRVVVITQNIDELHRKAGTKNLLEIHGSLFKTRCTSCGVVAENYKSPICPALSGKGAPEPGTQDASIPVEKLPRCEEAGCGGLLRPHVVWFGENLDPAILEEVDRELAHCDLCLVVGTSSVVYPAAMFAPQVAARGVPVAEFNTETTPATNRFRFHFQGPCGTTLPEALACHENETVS
Protocol: The cellular activity of probes 2A and 2B was also investigated. […] SIRT5 is known to deacetylate and activate carbamoyl phosphate synthetase I (CPS1), which is the enzyme catalyzing the first step of the urea cycle. Cells were treated with either probe 2B or a known SIRT5 inhibitor, suramin, before the acetylation level of CPS1 (CPS1Ac) was examined.
The cell lysate was resolved on a 10% SDS-PAGE gel and transferred to Immobilon PVDF transfer membrane (Millipore, Burlington, MA, USA). The blot was blocked with 5% nonfat milk, probed with primary antibody targeting H3K9Ac (Sigma-Aldrich, St. Louis, MO, USA), H3 (Abcam, Cambridge, MA, USA), acetyllysine or CPS1 (Cell Signaling Technology, Beverly, MA, USA), washed with PBST, followed by incubation with anti-rabbit or anti-mouse HRP conjugated secondary antibody. Then, the signal was detected by SuperSignal West Pico Chemiluminescent substrate (Thermo Fisher Scientific, Rockford, IL, USA).

[3] = biological target: T3, wild-type SIRT6 (wtSIRT6) (Homo sapiens, UniProt Q8N6T7); assay: Labeling of wild-type SIRT6; format: biochemical
T3 construct: host or cells: E. coli (inferred from b12)
Protocol: Remarkably, probe 2C was also able to label individual sirtuin isoforms in cell lysates. HEK293 cells overexpressing human SIRT2 were lysed, and the lysate was subjected to the labeling by 10 μM probe 2C.
A typical labeling experiment was performed as follows: in a 0.7 mL Eppendorf tube, purified recombinant human sirtuin (10 μM) was incubated with NAD^+ (500 μM) and activity-based probe at 37 °C for 10 min. The sample was transferred to a clear-bottom 96-well plate, placed on ice, and irradiated at 365 nm with a UV-lamp in a cold room. Subsequently, ingredients of the “click-chemistry” including azide-fluor 545, CuSO4, reducing agent (tris(2-carboxyethyl)phosphine, TCEP) and stabilizing agent (tris[(1-benzyl-1H-1,2,3-triazol-4-yl)methyl]amine, TBTA) were added, and the sample was gently agitated at 250 rpm on a microshaker at room temperature for 30 min. Then, the sample was resolved by SDS-PAGE. To […] the signal to noise ratio, the gel was destained to eliminate non-specific binding of free dyes. This was done in a mixture of methanol/distilled water/acetic acid (v/v/v = 4/5/1) at ambient temperature for 4 h. Then, destained gel was analyzed with in-gel fluorescence scanning using a Biorad ChemiDoc MP imager (excitation 532 nm, 580 nm cut-off filter and 30 nm band-pass). Finally, Coomassie blue staining was applied to provide loading control.

T3 sequence (Q8N6T7 whole entry): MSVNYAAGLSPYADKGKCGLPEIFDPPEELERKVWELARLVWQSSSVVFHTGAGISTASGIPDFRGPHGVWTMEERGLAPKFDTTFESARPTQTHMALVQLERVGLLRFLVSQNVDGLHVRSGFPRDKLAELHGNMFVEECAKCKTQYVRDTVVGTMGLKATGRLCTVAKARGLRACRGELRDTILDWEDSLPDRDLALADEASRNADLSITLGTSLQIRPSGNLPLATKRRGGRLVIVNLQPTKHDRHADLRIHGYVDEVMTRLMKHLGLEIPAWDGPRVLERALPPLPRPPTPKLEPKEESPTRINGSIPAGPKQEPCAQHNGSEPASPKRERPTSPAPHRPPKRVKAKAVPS

Row | CPS1Ac level compared to control [2] | SMILES | labeling of SIRT5 in sirtuin mixture [1] | labeling of wtSIRT6 [3]
1 | increased CPS1Ac level | C#CCCCC1(CCC(=O)N[C@@H](CCCCNC(=S)CCC(=O)O)C(=O)N[C@@H](C)C(=O)N[C@@H](C)C(=O)OC)N=N1 [Probe 2B] | robust labeling of SIRT5 in a concentration-dependent fashion | 
2 |  | C#CCCCC1(CCC(=O)N[C@@H](CCCCNC(=S)CCCCCCCCCCCCC)C(=O)N[C@@H](C)C(=O)N[C@@H](C)C(=O)OC)N=N1 [Probe 2C] |  | concentration-dependent labeling of wild-type SIRT6
